Data on eight compounds can be found in US6025385A, “Taxane derivatives and drugs containing the same” (Kabushiki Kaisha Yakult Honsha, priority 1996, dated 2000).

≈ marks a conversion by molar mass, not a printed value. Read-outs that look alike come from different tables or passages of the source.

Data set [1] in a line: Solubility in water (HPLC, shaken 2 hours at room temperature). To be noted: for Dissolved amount (Y): amount in 5 μl injected, purified water with 0.1 N hydrochloric acid, room temperature, 2 hours; for solubility thermodynamic at 2 h: water with 0.1 n hcl. How it is done: I) Preparation of calibration curves:
Using 20 μl portions of the standard solutions, tests were conducted by HPLC (operation conditions 1).
[HPLC operation conditions 1]
Column: Inertsil ODS-2 (5-250), 40 deg.
Mobile phase: 0.01 M KH2 PO4 --CH3 CN (5:4).
Detection: Ultraviolet absorption photometer (225 nm), 0.08AUFS.
To the respective suspensions, 0.1 N hydrochloric acid was added in amounts of 35 λl and 30 μl (1.1 eq.). By ultrasonication the resulting mixtures were formed into uniform suspensions, which were then shaken at room temperature for 2 hours. The thus-obtained mixtures were filtered through membrane filters (0.22 pm), and the filtrates were provided as test solutions. Using 5 μl portions of the test solutions, tests were conducted by HPLC (operation conditions 1).
I) Preparation of calibration curve:
By ultra-sonication the suspension was formed into a uniform suspension, which was then shaken at room temperature for 2 hours.
Using 20 At of the standard solution, a test was conducted by HPLC (operation conditions 1).
Operation conditions for the HPLC operation were set as in Test 1.
By ultrasonication the resulting mixture was formed into a uniform suspension, which was then shaken at room temperature for 2 hours. The mixture was filtered through a membrane filter (0.22 pm), and the filtrate was provided as a test solution. Using 5 μl of the test solution, a test was conducted by HPLC (the above operation conditions).

Data set [2] has as its system ovarian cancer and breast cancer. To be noted: Ann. int. Med. 111, 273, 1989; cited from earlier work.
The test system of data set [3] is cell strain KB derived from a human mouth cancer. The data set is described as follows: Growth inhibitory activity against KB cells (XTT assay). To be noted: for GI50: Homo sapiens, 72 h, read-out: 50% Growth Inhibitory Concentration (GI50), KB; for Activity ratio: KB GI50 relative to Taxol (Taxol = 1.0). The class given is cell-based. The procedure: Growth Inhibitory Activities of Taxane Derivatives (1)
As a cell strain KB derived from a human mouth cancer, one purchased from Dainippon Pharmaceutical Co., Ltd. and stored in a lyophilized form at The Central Research Center, Yakult Honsha Co., Ltd. was used. In Dulbeccols modefied Earglets medium containing 10% fetal bovine serum (product of NISSUI PHARMACEUTICAL CO., LTD.), the KB was maintenance-cultured under the following conditions: 5%, CO2 -air, 37° C.
Each compound was used by dissolving it at a concentration of 10 mg/ml in DMSO.
On Day-1, cells which were in a logarithmic growth phase were inoculated at 2,000 cells/100 μl/well on 96-well microtiter plates (Falcon #3072) by using a phenol-red-free culture medium with 10% fetal bovine serum contained therein (Dulbecco's molefied Eargle's medium (Sigma)), and were cultured overnight. On Day 0, the compounds each of which had been diluted to 0.03 to 10,000 ng/ml with the same culture medium were added in 100 μl aliquots to the individual wells, and the cells were cultured for 3 days. Three wells were used per each drug concentration. Each plate was provided with three blank wells containing only the culture medium and also with eight wells as a drug-untreated control.
Before use, XTT (Sigma) was dissolved at a concentration of 1 mg/me in each culture media which as free of serum. Phenodin methosulfate (Sigma) dissolved at a concentration of 5 mM in PBS was added to the resulting solution at a volume ratio of 1/200. To each well, the solution so prepared was added in an amount of 50 μl per well. Subsequent to culture for 4 hours, OD was measured at 450 nm by ELISA.
Calculation of 50% Growth Inhibitory Concentration (GI50)
GI50 was calculated by interpolation from a concentration-growth inhibition rate (GIR). GIR was determined in accordance with the following formula: [formula] Bibiography Scudiero D A, et al., Cacer Res., 48, 4827-4833, 1988.
1994 Report of The Anticancer Agent Screening Special Committee, "Cancers and Chemotherapy", 21, 1306-1307.

For data set [4] the following is noted: background statement; cited from earlier work.
[5] abbreviates: purified water with hydrochloric acid.

With `CC(=O)O[C@H]1C(=O)[C@@]2(C)[C@H]([C@H](OC(=O)c3ccccc3)[C@]3(O)C[C@H](OC(=O)[C@H](O)[C@@H](NC(=O)c4ccccc4)c4ccccc4)C(C)=C1C3(C)C)[C@]1(OC(C)=O)CO[C@@H]1C[C@@H]2O` [Taxol, reference compound], in data set [1] (purified water), the solubility at 2 h was 0.4 µg/mL (≈ 0.468 µM). Moreover, the “efficacy against ovarian cancer and breast cancer” value in data set [2] was “high efficacy against ovarian cancer and breast cancer”. The GI50 in data set [3] (KB) came to 2 ng/mL (≈ 0.00234 µM). Moreover, in data set [4], the “solubility in water (in words)” value is reported as “sparingly soluble in water”.
As for `CC(=O)O[C@@]12CO[C@@H]1C[C@H](O)[C@@]1(C)C(=O)[C@H](OC(=O)N3CCC(N(C)C)CC3)C3=C(C)[C@@H](OC(=O)[C@H](O)[C@@H](NC(=O)OC(C)(C)C)c4ccccc4)C[C@@](O)([C@@H](OC(=O)c4ccccc4)[C@H]21)C3(C)C` [Compound 3, 13-O-[3-(tert-Butoxycarbonylamino)-2-hydroxy-3-phenylpropionyl]-10-O-(4-dimethylaminopiperidinocarbonyl)-10-deacetylbaccatin III], in data set [1], the “Dissolved amount (Y)” value was determined as 6.31 μg/5 μl and the solubility (thermodynamic) at 2 h stood at 1260 µg/mL (≈ 1310 µM). Further, in data set [1] (setting [5]), the solubility at 2 h amounted to 1260 µg/mL (≈ 1310 µM).
On to `CC(=O)O[C@@]12CO[C@@H]1C[C@H](O)[C@@]1(C)C(=O)[C@H](OC(=O)N3CCC(N4CCCCC4)CC3)C3=C(C)[C@@H](OC(=O)[C@H](O)[C@@H](NC(=O)OC(C)(C)C)c4ccccc4)C[C@@](O)([C@@H](OC(=O)c4ccccc4)[C@H]21)C3(C)C` [Compound 9, 13-O-[3-(tert-Butoxycarbonylamino)-2-hydroxy-3-phenylpropionyl]-10-O-(4-piperidinopiperidinocarbonyl)-10-deacetylbaccatin III], for which the GI50 in data set [3] (KB cells, 3 days culture, XTT) came to 0.78 ng/mL (≈ 0.000778 µM). The Activity ratio in data set [3] stood at 2.6.
Consider `CCCN(CCC)C1CCN(C(=O)O[C@H]2C(=O)[C@@]3(C)[C@H]([C@H](OC(=O)c4ccccc4)[C@]4(O)C[C@H](OC(=O)[C@H](O)[C@@H](NC(=O)OC(C)(C)C)c5ccccc5)C(C)=C2C4(C)C)[C@]2(OC(C)=O)CO[C@@H]2C[C@@H]3O)CC1` [Compound 6, 13-O-[3-(tert-Butoxycarbonylamino)-2-hydroxy-3-phenylpropionyl]-10-O-(4-dipropylaminopiperidinocarbonyl)-10-deacetylbaccatin III], for which, in data set [3] (KB), the GI50 is 0.73 ng/mL (≈ 0.000717 µM). In addition, the Activity ratio in data set [3] is 2.7.
On to `CC(=O)O[C@@]12CO[C@@H]1C[C@H](O)[C@@]1(C)C(=O)[C@H](OC(=O)N3CCN(C)CC3)C3=C(C)[C@@H](OC(=O)[C@H](O)[C@@H](NC(=O)OC(C)(C)C)c4ccccc4)C[C@@](O)([C@@H](OC(=O)c4ccccc4)[C@H]21)C3(C)C` [Compound 39, 13-O-[3-(tert-Butoxycarbonylamino)-2-hydroxy-3-phenylpropionyl]-10-O-(4-methylpiperazinocarbonyl)-10-deacetylbaccatin III], for which, in data set [3] (KB cells, 3 days culture, XTT), the GI50 came to 0.59 ng/mL (≈ 0.000632 µM). Further, the Activity ratio in data set [3] came out at 3.4.
Take `CCN1CCN(C(=O)O[C@H]2C(=O)[C@@]3(C)[C@H]([C@H](OC(=O)c4ccccc4)[C@]4(O)C[C@H](OC(=O)[C@H](O)[C@@H](NC(=O)OC(C)(C)C)c5ccccc5)C(C)=C2C4(C)C)[C@]2(OC(C)=O)CO[C@@H]2C[C@@H]3O)CC1` [Compound 42, 13-O-[3-(tert-Butoxycarbonylamino)-2-hydroxy-3-phenylpropionyl]-10-O-(4-ethylpiperazinocarbonyl)-10-deacetylbaccatin III]: in data set [1], the “Dissolved amount (Y)” value was 5.90 μg/5 μl and the thermodynamic solubility at 2 h worked out at 1180 µg/mL (≈ 1240 µM). The amount in solution in data set [1] (setting [5]) (solubility at 2 h) came to 1180 µg/mL (≈ 1240 µM). For the same compound, the GI50 in data set [3] (KB) came to 0.65 ng/mL (≈ 0.000686 µM). Also, the Activity ratio in data set [3] was determined as 3.1.
Take `CC(=O)O[C@@]12CO[C@@H]1C[C@H](O)[C@@]1(C)C(=O)[C@H](OC(=O)N3CCN(CC(=O)NC(C)C)CC3)C3=C(C)[C@@H](OC(=O)[C@H](O)[C@@H](NC(=O)OC(C)(C)C)c4ccccc4)C[C@@](O)([C@@H](OC(=O)c4ccccc4)[C@H]21)C3(C)C` [Compound 45, 13-O-[3-(tert-Butoxycarbonylamino)-2-hydroxy-3-phenylpropionyl]-10-O-[4-(isopropylaminocarbonylmethyl)piperazinocarbonyl]-10-deacetylbaccatin III]: the GI50 in data set [3] (KB cells, 3 days culture, XTT) was found to be 0.86 ng/mL (≈ 0.000844 µM). In data set [3], the Activity ratio is on record as 2.3.
In the case of `CC(=O)O[C@H]1C(=O)[C@@]2(C)[C@H]([C@H](OC(=O)c3ccccc3)[C@]3(O)C[C@H](OC(=O)[C@H](O)[C@@H](NC(=O)N4CCC(N5CCCCC5)CC4)c4ccccc4)C(C)=C1C3(C)C)[C@]1(OC(C)=O)CO[C@@H]1C[C@@H]2O` [Compound 58, 13-O-[2-Hydroxy-3-phenyl-3-(4-piperidinopiperidinocarbonylamino)propionyl]baccatin III], in data set [1], the “Dissolved amount (Y)” value is 7.95 μg/5 μl and the solubility (thermodynamic) at 2 h came to 1590 µg/mL (≈ 1680 µM). The solubility at 2 h in data set [1] (setting [5]) came out at 1590 µg/mL (≈ 1680 µM).

By solubility is commonly meant the concentration that dissolves in the medium under given conditions. Read a low solubility as little dissolved substance. Usually thermodynamic solubility stands for solubility found after equilibrating the solid with the medium.
